According to paper PMC6522941, “Design, synthesis, and anticancer evaluation of novel quinoline derivatives of ursolic acid with hydrazide, oxadiazole, and thiadiazole moieties as potent MEK inhibitors” (Journal of Enzyme Inhibition and Medicinal Chemistry, 2019):

Tests used:
MEK1 = target: T1, MEK1 (Homo sapiens, UniProt Q02750); assay: In vitro MEK1 kinase assay (ADP-Glo); format: biochemical; conditions: recombinant GST-MEK1, GST-ERK2 (inactive) substrate, 10 μM ATP
T1 construct: purchased Carna Biosciences, Kobe, Japan
Description: An in vitro kinase assay of MEK1 was performed using ADP-Glo kinase assay (Promega, Madison, WI, USA) according to the manufacturer’s protocol. […] Reactions were stopped by adding 5 μL of ADP-Glo reagent to each well. After incubating at 22 °C for 40 min, 10 μL of the kinase detection reagent was added and the plates were incubated for another 30 min at 22 °C in the dark. The reaction mixture was analysed by EnSpire (PerkinElmer, Waltham, MA, USA).
The Raf/MEK/ERK pathway is the downstream of Ras activation, and the abnormal expression or phosphorylation of the associated proteins is essential for cancer cell proliferation. In this pathway, MEK kinase is an important anticancer target because of its key roles in regulating the cancer cell apoptosis and oncogenic transformation[51]^,[52]. Among MEK proteins, MEK1 and MEK2 are known as substrate-specific kinases which phosphorylate their downstream kinase ERK1/2.

HeLa cells = assay: MTT cytotoxic assay, HeLa; format: cell-based; conditions: Homo sapiens, 72 h
Description: (§1) Human breast cancer cell line (MDA-MB-231), cervical carcinoma cell line (HeLa), the liver cancer cell line (SMMC-7721) and normal hepatocyte cell line (QSG-7701) were maintained in Dulbecco Modified Eagle Medium (DMEM) containing 4.0 mM L-Glutamine and 4500 mg/L Glucose supplemented with 10% (v/v) foetal bovine serum (FBS) and 100 U/mL penicillin/streptomycin at 37 °C in humidified atmosphere of 5% CO2 and 95% air.
(§2) Exponentially growing MDA-MB-231, Hela and SMMC-7721 cell lines were seeded into 96-well plate for 100 μL and treated with different concentrations of the synthetic compounds for 72 h, and then 10 μL of MTT (10 mg/mL) was added and incubation for 3 ∼ 4 h at 37 °C. The generated purple formazan crystals from viable can be dissolved by adding 100 μL DMSO. The plates were swirled gently for 5 min and quantified by measuring the OD of the plates at the wavelength of 540 nm. Each concentration was repeated in three wells and the same experimental condition was provided for all compounds. The results were expressed as IC50 values with standard deviations, which was defined as the concentration at which 50% survival of cells was discerned. Etoposide was co-assayed as positive control.
(§3) The in vitro cytotoxic activity of derivatives 3a–d, 4a–h, 5a–h, and 6a–h were evaluated by MTT assay against human breast cancer cell line (MDA-MB-231), cervical carcinoma cell line (HeLa), hepatocarcinoma cell line (SMMC-7721) and human normal hepatocyte cell line (QSG-7701). The anticancer drug etoposide was co-assayed as the positive control. All tested compounds were dissolved in DMSO and the stock solutions were diluted by DMEM medium before treatment of the cultured cells.

SMMC-7721 cells = assay: MTT cytotoxic assay, SMMC-7721; format: cell-based; conditions: Homo sapiens, 72 h
Description: as §1, §2, §3

MDA-MB-231 cells = assay: MTT cytotoxic assay, MDA-MB-231; format: cell-based, human
Description: as §1, §2, §3

QSG-7701 cells = assay: MTT cytotoxic assay, normal hepatocyte QSG-7701; format: cell-based, human; conditions: for IC50: Homo sapiens, QSG7701, MTT, normal hepatocyte cell line; for Selectivity: IC50 (QSG-7701)/IC50 (HeLa)
Description: as §1, §2, §3

T1 sequence (Q02750 whole entry): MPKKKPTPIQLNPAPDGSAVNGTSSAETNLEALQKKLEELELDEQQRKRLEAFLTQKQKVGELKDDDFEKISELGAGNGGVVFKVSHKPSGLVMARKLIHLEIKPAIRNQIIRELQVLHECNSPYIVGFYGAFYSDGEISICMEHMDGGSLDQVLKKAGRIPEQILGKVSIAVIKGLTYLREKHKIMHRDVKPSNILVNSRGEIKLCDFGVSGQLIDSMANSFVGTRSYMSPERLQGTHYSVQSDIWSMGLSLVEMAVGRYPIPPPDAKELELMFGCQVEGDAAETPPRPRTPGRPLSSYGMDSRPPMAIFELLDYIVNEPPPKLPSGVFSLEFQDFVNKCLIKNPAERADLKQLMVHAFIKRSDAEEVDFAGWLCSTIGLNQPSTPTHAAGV

Row | IC50 (MEK1) [µM] | Structure (SMILES) | IC50 (HeLa cells) [µM] | IC50 (SMMC-7721 cells) [µM] | IC50 (MDA-MB-231 cells; Homo sapiens, MDA-MB-231, 72 h) [µM] | IC50 (QSG-7701 cells) [µM] | Selectivity (QSG-7701 cells) | IC50 (MDA-MB-231 cells; 72 h) [µM]
1 | 37.3 | CC(=O)NNC(=O)[C@]12CC[C@@H](C)[C@H](C)C1C1=CCC3[C@@]4(C)Cc5cc6ccccc6nc5C(C)(C)C4CC[C@@]3(C)[C@]1(C)CC2 (stereo partly shown) [Compound 4a, N-[ursa-12-en-(2,3)-quinoline-28-oyl]-acetohydrazide] | 1.18 ± 0.03 | 17.48 ± 0.1 | 1.84 ± 0.13 | 40.6 ± 2.89 | 34.4 | –
2 | 10.9 | COc1ccc2nc3c(cc2c1)CC1(C)C(CCC2(C)C1CC=C1C4C(C)C(C)CCC4(C(=O)NNC(C)=O)CCC12C)C3(C)C (stereo not shown) [Compound 4b, N-[5′-methoxy-ursa-12-en-(2,3)-quinoline-28-oyl]-acetohydrazide] | 0.83 ± 0.09 | 17.65 ± 0.11 | 1.42 ± 0.14 | 45.2 ± 2.82 | 54.5 | –
3 | 0.072 | CC(=O)NNC(=O)[C@]12CC[C@@H](C)[C@H](C)C1C1=CCC3[C@@]4(C)Cc5cc6cc(F)ccc6nc5C(C)(C)C4CC[C@@]3(C)[C@]1(C)CC2 (stereo partly shown) [Compound 4c, N-[5′-fluoro-ursa-12-en-(2,3)-quinoline-28-oyl]-acetohydrazide] | 0.99 ± 0.05 | 19.41 ± 0.12 | 1.16 ± 0.06 | > 50 | 63.8 | –
4 | > 50 | Cc1nnc([C@]23CC[C@@H](C)[C@H](C)C2C2=CCC4[C@@]5(C)Cc6cc7ccccc7nc6C(C)(C)C5CC[C@@]4(C)[C@]2(C)CC3)o1 (stereo partly shown) [Compound 5a, N-2-[ursa-12-en-(2,3)-quinoline-28-oyl]-5-methyl-1,3,4-oxadiazole] | 19.4 ± 0.7 | > 50 | < 10 | > 50 | 4.3 | 5.32 ± 0.13
5 | > 50 | Cc1nnc([C@]23CC[C@@H](C)[C@H](C)C2C2=CCC4[C@@]5(C)Cc6cc7cc(Cl)ccc7nc6C(C)(C)C5CC[C@@]4(C)[C@]2(C)CC3)s1 (stereo partly shown) [Compound 6d] | 10.9 ± 1.07 | > 50 | 15.8 ± 1.32 | > 50 | 5.7 | –
